Drawing on patent US8658638B2, “Mineralocorticoid receptor antagonist and methods of use” (priority 2009, dated 2014), this text covers Kb, EC50 and IC50 for 1 compound.

One experiment deals with T1, human MR (Homo sapiens, UniProt P08235).
T1 construct: expressed in transfected cells; host or cells: HEK293
T1 sequence (P08235 1-984): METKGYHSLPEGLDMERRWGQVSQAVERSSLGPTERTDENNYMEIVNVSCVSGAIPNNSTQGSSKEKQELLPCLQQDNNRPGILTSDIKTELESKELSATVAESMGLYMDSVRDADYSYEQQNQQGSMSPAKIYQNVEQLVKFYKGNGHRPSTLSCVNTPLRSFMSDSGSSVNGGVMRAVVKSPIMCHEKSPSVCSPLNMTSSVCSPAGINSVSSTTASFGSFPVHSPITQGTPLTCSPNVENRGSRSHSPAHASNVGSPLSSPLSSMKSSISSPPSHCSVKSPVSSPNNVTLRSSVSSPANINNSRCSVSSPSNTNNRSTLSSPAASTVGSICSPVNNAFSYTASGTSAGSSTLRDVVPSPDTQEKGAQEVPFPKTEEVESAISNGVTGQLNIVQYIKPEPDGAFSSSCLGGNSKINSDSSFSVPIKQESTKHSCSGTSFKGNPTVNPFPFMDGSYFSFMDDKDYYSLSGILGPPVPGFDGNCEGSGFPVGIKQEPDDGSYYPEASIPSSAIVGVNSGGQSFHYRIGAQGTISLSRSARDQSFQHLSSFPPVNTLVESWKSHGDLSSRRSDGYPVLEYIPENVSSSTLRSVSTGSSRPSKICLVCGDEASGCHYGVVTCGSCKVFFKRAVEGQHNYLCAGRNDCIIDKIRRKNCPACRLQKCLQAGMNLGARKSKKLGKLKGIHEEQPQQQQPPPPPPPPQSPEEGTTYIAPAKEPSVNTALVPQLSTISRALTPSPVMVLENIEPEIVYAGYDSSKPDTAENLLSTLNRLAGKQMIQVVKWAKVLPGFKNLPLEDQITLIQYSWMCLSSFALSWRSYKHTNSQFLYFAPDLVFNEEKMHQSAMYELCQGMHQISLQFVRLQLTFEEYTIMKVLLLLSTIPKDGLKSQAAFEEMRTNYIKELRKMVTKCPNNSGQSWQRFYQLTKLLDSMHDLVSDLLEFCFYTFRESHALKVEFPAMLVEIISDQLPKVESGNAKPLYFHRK
Description: hMR competitive antagonist assay (Schild analysis). In kind it is cell-based. The settings on record: Schild analysis versus aldosterone, HEK293 transfected with human MR.

Experiment [1] addresses T2, human glucocorticoid receptor (GR) (Homo sapiens, UniProt P04150).
T2 construct: expressed in transfected cells; host or cells: HEK293
T2 sequence (P04150 1-777): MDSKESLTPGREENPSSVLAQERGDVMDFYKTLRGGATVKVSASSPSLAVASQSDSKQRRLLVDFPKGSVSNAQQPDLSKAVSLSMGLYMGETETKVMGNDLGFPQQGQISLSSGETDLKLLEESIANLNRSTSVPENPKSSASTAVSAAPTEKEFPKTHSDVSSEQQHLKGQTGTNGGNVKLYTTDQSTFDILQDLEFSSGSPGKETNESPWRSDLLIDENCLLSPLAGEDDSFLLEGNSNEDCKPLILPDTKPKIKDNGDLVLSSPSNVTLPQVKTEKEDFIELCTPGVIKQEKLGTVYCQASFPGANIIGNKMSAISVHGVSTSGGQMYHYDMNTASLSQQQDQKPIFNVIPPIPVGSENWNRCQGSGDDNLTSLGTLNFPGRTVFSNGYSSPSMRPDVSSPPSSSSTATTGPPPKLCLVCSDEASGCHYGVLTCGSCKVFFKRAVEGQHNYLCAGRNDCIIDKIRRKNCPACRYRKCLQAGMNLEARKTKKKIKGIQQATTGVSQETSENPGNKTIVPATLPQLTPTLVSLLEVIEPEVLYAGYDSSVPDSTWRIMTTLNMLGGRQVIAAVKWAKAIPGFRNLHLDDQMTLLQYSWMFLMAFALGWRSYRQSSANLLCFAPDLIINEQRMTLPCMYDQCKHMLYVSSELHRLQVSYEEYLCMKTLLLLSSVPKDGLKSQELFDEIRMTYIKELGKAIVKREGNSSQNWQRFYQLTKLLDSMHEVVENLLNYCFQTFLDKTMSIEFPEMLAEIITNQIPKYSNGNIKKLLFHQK
Nature of the experiment: Nuclear hormone receptor panel screen (luciferase reporter, HEK293), GR. In kind it is cell-based. From the text: Aldosterone exerts it physiological effects through interaction with the mineralocorticoid receptor. Following cytoplasmic binding of aldosterone to MR, the ligand receptor complex translocates to the cell nucleus where it binds to hormone response elements on DNA to initiate expression of target genes. […] The solvents, reagents, and ligands employed in the functional assay are readily available from commercial sources, or can be prepared by one of ordinary skill in the art.
Human embryonic kidney HEK293 cells are transfected with steroid hormone receptor and reporter gene plasmids using a suitable transfection reagent such as Fugene™. […] After 24 hours incubation with test compounds, cells are lysed and luciferase activity is determined using standard techniques.
Data are fitted to a four parameter-fit logistic curve to determine EC50 values. […] IC50 values are determined similarly using antagonist mode assay data. In the antagonist mode, percent inhibitions are determined by comparing test compound activity in the presence of low concentration of agonist (0.08 nM aldosterone for MR, 0.25 nM dexamethasone for GR, 0.66 nM of methyltrienolone for AR, and 0.08 nM of promegestone for PR) to the response produced by the same low concentration of agonist in the absence of test compound.
In general terms: A reporter such as luciferase makes a cellular process visible.

Description for human MR: Human embryonic kidney HEK293 cells are transfected with human MR using the same transfection reagents, plasmids, promoters, reporter constructs, buffers, and procedures as described above for the Nuclear Hormone Receptor Panel Screen.

In turn, `O=c1[nH]c2cc(/C=C3\c4ccccc4COc4cc(F)ccc43)ccc2n1[C@@H]1C[C@@H]2COCCN2C1` [Compound (I), 5-((E)-(3-fluorodibenzo[b,e]oxepin-11(6H)-ylidene)methyl)-1-((7R,8aR)-hexahydro-1H-pyrrolo[2,1-c][1,4]oxazin-7-yl)-1H-benzo[d]imidazol-2(3H)-one] had an antagonist equilibrium constant (Kb) on human MR of around 0.0051 µM. Moreover, the EC50 in experiment [1] (agonist mode) was above 10 µM. The same compound came in with an IC50 in experiment [1] (antagonist mode, 0.25 nM dexamethasone) above 10 µM.

In general, Kb refers to the equilibrium dissociation constant of an antagonist, usually derived from a functional assay. Low readings indicate higher antagonist affinity, high ones lower antagonist affinity. One may read the EC50 as the concentration giving half of the maximal effect. A higher EC50 goes with a less potent agent. One may read the IC50 as the point on the concentration scale where inhibition reaches its midpoint. A lower IC50 goes with greater potency.
